Measurements: PMC8380212, “^18F-labeled tracers targeting fibroblast activation protein” (EJNMMI Radiopharmacy and Chemistry, 2021)

Tests used:
[1] = Determination of logD values (1-octanol / PBS); format: physicochemical; details: 1-octanol / phosphate buffered saline, pH 7.4
Protocol: All experiments for the determination of logD values were performed in triplicate. For the determination by means of radioactivity, around 5 × 10^6 cpm in ca. 1 µL of radioactive stock solutions (water/acetonitrile 1:1) were added to 100 µL phosphate buffered saline (PBS, pH 7.4) and 100 µL of 1-octanol. The mixture was vortexed for 1 min, followed by 5 min of centrifugation for phase separation. A sample of each phase (10 or 50 µL) was measured for radioactivity per volume (Packard Cobra II Autogamma, GMI Inc., USA). In case of FAPI-72 and -73, the reference compounds [^19F]-FAPI-72 and -73 were dissolved in PBS at a concentration of 1 mg/mL. 50 µL of these solutions were each mixed with 50 µL 1-octanol and processed by vortexing and centrifugation as described above. 1 µL of each phase was analyzed by HPLC and the individual content of compound was determined by peak integration. The area under the peaks of the individual runs was used to calculate the log D value.
Fig. 1 Overview of the synthesized precursors discussed in this study. The corresponding log D values were determined by detection of the radiolabeled tracer in 1-octanol and phosphate buffered saline (pH 7). For values labeled with an asterix, the log D was calculated from the relative content of the non-radioactive reference standards in the 1-octanol and the water phase by HPLC analysis and peak integration TEXT PRINTED IN THE PICTURE: FAPI-42: LOG D: -1.63±0.06 | FAPI-52: LOG D: -1.90±0.02 | FAPI-72: LOG D: 1.20±0.01* | FAPI-73: LOG D: 1.13±0.05* | FAPI-74: LOG D: -2.42±0.03 | FAPI-75: LOG D: -3.36±0.12 | FAPI-76: LOG D: -2.86±0.07

[2] = biological target: T1, FAP‐transfected HT‐1080‐FAP cells (Homo sapiens, UniProt Q12884); experiment: In vitro binding/uptake on FAP-transfected HT-1080-FAP cells; format: cell-based; details: HT1080-FAP cells; for uptake 10 min: 10 min incubation; for uptake 60 min: 60 min incubation; for uptake 120 min: 120 min incubation; for uptake, measurement at 90 min: printed in 120 min column, footnote a: 90 min
T1 construct: expressed in transfected cells; host or cells: HT-1080 cells transfected with FAP (HT-1080-FAP)
T1 sequence (Q12884 1-760): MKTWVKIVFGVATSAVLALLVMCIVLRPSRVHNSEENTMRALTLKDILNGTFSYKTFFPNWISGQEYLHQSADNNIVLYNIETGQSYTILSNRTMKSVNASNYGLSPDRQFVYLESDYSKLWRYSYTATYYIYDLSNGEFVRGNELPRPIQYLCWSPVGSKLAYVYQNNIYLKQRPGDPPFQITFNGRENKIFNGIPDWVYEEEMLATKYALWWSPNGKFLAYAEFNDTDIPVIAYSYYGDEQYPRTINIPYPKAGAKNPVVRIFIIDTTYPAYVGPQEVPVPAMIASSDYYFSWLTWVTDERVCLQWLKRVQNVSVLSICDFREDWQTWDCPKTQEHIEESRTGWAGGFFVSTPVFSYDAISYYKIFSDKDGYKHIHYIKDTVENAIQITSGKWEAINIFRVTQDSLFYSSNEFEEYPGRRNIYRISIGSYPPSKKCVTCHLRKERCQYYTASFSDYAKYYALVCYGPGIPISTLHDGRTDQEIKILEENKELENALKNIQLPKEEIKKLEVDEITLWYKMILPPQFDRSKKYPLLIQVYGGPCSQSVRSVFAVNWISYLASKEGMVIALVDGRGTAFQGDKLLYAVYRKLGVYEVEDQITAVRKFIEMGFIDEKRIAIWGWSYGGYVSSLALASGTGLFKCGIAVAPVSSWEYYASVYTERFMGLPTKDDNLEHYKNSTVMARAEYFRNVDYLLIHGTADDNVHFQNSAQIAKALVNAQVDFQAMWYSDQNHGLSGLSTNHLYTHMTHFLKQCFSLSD
Protocol: (§1) The binding properties of the FAPI derivatives were evaluated using the FAP‐transfected HT‐1080‐FAP and CD26 expressing HEK-CD26 cells. All cells were cultivated in Dulbecco's modified Eagle's medium (DMEM) containing 10% fetal calf serum (FCS) at 37 °C/5% carbon dioxide. Cells were seeded in 6-well plates and cultivated to a final confluence of approximately 80–90% (1.2 to 2.0 × 10^6 cells/well). After washing with FCS free medium, for each well ca. 3 kBq of the radiolabeled compound (10–20 GBq/µmol for [^18F]AlF-labeling) was added to the cells in FCS free medium. On completion of the individual incubation time, cells were washed with PBS and treated with 1.4 mL lysis buffer (0.3 m NaOH, 0.2% SDS) before being transferred to measuring tubes. Competition experiments were performed by co-incubation with the unlabeled precursor for 60 min. Radioactivity was determined in a Wizard Gamma Counter (Perkin Elmer), normalized to 10^6 cells and calculated as percentage of the applied dose (%AD). Each experiment was performed in triplicate.

FAP (HT-1080-FAP cells) = biological target: T2, FAP (HT-1080-FAP cells) (Homo sapiens, UniProt Q12884); experiment: Competition experiments with unlabeled precursor on HT-1080-FAP cells; format: binding; details: co-incubation with unlabeled precursor for 60 min
T2 construct: expressed in transfected cells; host or cells: HT-1080 cells transfected with FAP (HT-1080-FAP)
T2 sequence (Q12884 1-760): T1 sequence (Q12884 1-760)
Protocol: as §1

HT-1080-FAP xenografts = experiment: Small animal PET imaging; format: in vivo, BALB/c nu/nu mice; details: for Tumor Uptake (SUVmean) 8 min / Tumor Uptake (SUVmean) 22 min / Tumor Uptake (SUVmean) 57 min / Tumor Uptake (SUVmean) 120 min: HT1080-FAP transplanted nude mice
Protocol: Eight-week-old BALB/c nu/nu mice (Charles River) were subcutaneously inoculated with 5 × 10^6 HT-1080-FAP cells. The subcutaneous xenografts were grown at the flanks of the mice. Xenografts were grown to a tumor diameter of 10–15 mm. Mice were anesthetized using isoflurane inhalation. 5–10 MBq of the [^18F]AlF-labeled compounds/ the respective tracer (FAPI-42/52/74/75/76; approx. 0.5 nmol; Am approximately 10–20 GBq/µmol) were injected intravenously for PET imaging. In vivo competition (blocking) experiments with ^68 Ga-FAPI-74 (9 MBq; 18.2 GBq/µmol) were performed by adding 30 nmol of unlabeled FAPI-74 to the injection solution. Images were acquired using a small-animal PET scanner (Inveon, Siemens). Within the first 60 min p.i., a dynamic scan was performed in list mode, followed by a static scan from 120–140 min post injection. Images were reconstructed iteratively using the 3D-OSEM + MAP method (Siemens) and were converted to standardized uptake value (SUV). For the dynamic analysis, 28 frames were reconstructed. Quantification was based on ROI analysis and expressed as SUV.
SUPPLEMENTAL TABLE 1: Tumor-SUVmean values of all mentioned ^18F labeled FAPI-derivatives in HT1080-FAP transplanted nude mice at different time points. The time points 8 min, 22 min and 57 min were selected from the applied 28-frame 3D-OSEM+MAP (Siemens) reconstruction method.

[3] = tested on: U87MG- and A549-xenograft models; details: in vivo; cited from earlier work
[4] = biological target: T3, CD26 expressing HEK-CD26 cells (Homo sapiens, UniProt P27487); experiment: In vitro binding on HEK-CD26 cells (negative control); format: cell-based
T3 construct: expressed in transfected cells; host or cells: HEK cells transfected with CD26/DPP4 (HEK-CD26)
Protocol: as §1

wild type HT1080 cells = experiment: In vitro binding on wild type HT1080 cells (negative control); format: cell-based
Protocol: as §1
Table 1 summarizes the uptake and EC50 values of the discussed ^18F-labeled FAPI derivatives using the FAP-transfected cell line HT-1080-FAP. Additionally, the lead candidates FAPI-74 to -76 were tested on HEK-CD26 as well as -74 and -75 on wild type HT1080 cells as negative control. […] For FAPI-74, a plateau was already reached after approximately 10 min with 27.2 ± 0.88%AD/10^6cells. […] The EC50 values were all in the low to sub-nanomolar range. Only a neglectable fraction of FAPIs 74–76 were detected on HEK-CD26 cells (0.18–0.24%) as well as on wildtype HT1080 in case of -74 and 75 (< 0.1%).

[5] = radiolabeled tracer detected by radioactivity in 1-octanol and phosphate buffered saline
[6] = non-radioactive reference standards, 1-octanol and water phase, HPLC analysis and peak integration (asterisk)
[7] = small animal PET, HT-1080-FAP xenograft

T3 sequence (P27487 whole entry): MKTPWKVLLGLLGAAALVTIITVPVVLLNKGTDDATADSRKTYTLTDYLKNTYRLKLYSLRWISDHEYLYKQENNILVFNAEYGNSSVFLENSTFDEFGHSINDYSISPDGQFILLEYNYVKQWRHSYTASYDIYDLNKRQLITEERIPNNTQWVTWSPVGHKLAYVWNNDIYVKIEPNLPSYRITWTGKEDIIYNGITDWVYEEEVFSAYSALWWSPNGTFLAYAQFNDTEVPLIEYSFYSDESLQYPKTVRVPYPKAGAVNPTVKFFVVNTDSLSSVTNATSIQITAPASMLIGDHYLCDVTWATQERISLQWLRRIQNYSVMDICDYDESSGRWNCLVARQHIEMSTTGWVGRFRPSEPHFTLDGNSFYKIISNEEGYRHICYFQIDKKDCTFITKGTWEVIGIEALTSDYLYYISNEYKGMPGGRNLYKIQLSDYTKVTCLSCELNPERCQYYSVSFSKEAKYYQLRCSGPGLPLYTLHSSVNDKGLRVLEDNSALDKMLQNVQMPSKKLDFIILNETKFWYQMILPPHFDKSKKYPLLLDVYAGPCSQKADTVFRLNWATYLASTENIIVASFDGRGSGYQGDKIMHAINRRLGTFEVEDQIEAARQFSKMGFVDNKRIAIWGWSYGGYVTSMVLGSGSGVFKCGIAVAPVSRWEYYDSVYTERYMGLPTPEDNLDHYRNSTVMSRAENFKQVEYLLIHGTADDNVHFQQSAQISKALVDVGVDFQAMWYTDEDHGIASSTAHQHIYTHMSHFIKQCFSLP

| Compound | logD [1, 5] | uptake 10 min [2] [%AD/10^6 cells] | uptake 60 min [2] [%AD/10^6 cells] | uptake 120 min [2] [%AD/10^6 cells] | EC50 (FAP (HT-1080-FAP cells)) [nM] | Tumor Uptake (SUVmean) 8 min (HT-1080-FAP xenografts) | Tumor Uptake (SUVmean) 22 min (HT-1080-FAP xenografts) | Tumor Uptake (SUVmean) 57 min (HT-1080-FAP xenografts) | Tumor Uptake (SUVmean) 120 min (HT-1080-FAP xenografts) | logD [1, 6] | uptake, measurement at 90 min [2] | detectability of tumor region in PET (HT-1080-FAP xenografts; [7]) | also measured |
| --- | --- | --- | --- | --- | --- | --- | --- | --- | --- | --- | --- | --- | --- |
| N#C[C@@H]1CC(F)(F)CN1C(=O)CNC(=O)c1ccnc2ccc(OCCCN3CCN(C(=O)CN4CCN(CC(=O)O)CCN(CC(=O)O)CC4)CC3)cc12 [FAPI-42] | -1.63 ± 0.06 | 40.0 ± 1.73 | 61.2 ± 1.76 | 58.0 ± 2.24 | 3.3 | 1.05 | 1.0 | 0.73 | 0.60 |  |  |  | tumor uptake SUVmean at early timepoints (HT-1080-FAP xenografts; small animal PET screening, early timepoints): approx. 1.0; elimination and bone accumulation [3]: hepatobiliary elimination together with an accumulation in the bone |
| C[N+](C)(C)c1ccc(C(=O)N2CCN(CCCOc3ccc4nccc(C(=O)NCC(=O)N5CC(F)(F)C[C@H]5C#N)c4c3)CC2)cn1 [FAPI-73] |  | 22.7 ± 0.24 | 39.2 ± 0.48 |  | < 1 | 0.45 | 0.44 | 0.42 | 0.33 | 1.13 ± 0.05 | 39.6 ± 0.95^a %AD/10^6 cells | hardly detectable |  |

Second part, led by results:

| logD [1, 5] | uptake 10 min [2] [%AD/10^6 cells] | uptake 60 min [2] [%AD/10^6 cells] | uptake 120 min [2] [%AD/10^6 cells] | EC50 (FAP (HT-1080-FAP cells)) [nM] | Tumor Uptake (SUVmean) 8 min (HT-1080-FAP xenografts) | Tumor Uptake (SUVmean) 22 min (HT-1080-FAP xenografts) | Tumor Uptake (SUVmean) 57 min (HT-1080-FAP xenografts) | Tumor Uptake (SUVmean) 120 min (HT-1080-FAP xenografts) | logD [1, 6] | uptake, measurement at 90 min [2] | Compound | detectability of tumor region in PET (HT-1080-FAP xenografts; [7]) | also measured |
| --- | --- | --- | --- | --- | --- | --- | --- | --- | --- | --- | --- | --- | --- |
| -1.9 ± 0.02 | 32.0 ± 0.28 | 45.9 ± 0.54 | 53.2 ± 1.38 | 3.2 | 0.65 | 0.55 | 0.47 | 0.20 |  |  | CN(CCCN1CCN(C(=O)CN2CCN(CC(=O)O)CCN(CC(=O)O)CC2)CC1)c1ccc2nccc(C(=O)NCC(=O)N3CC(F)(F)C[C@H]3C#N)c2c1 [FAPI-52] |  |  |
|  | 13.9 ± 0.60 | 23.6 ± 0.40 |  | < 1 | 0.19 | 0.15 | 0.13 | 0.1 | 1.2 ± 0.01 | 24.4 ± 0.30^a %AD/10^6 cells | CN(CCCN1CCN(C(=O)c2ccc([N+](C)(C)C)nc2)CC1)c1ccc2nccc(C(=O)NCC(=O)N3CC(F)(F)C[C@H]3C#N)c2c1 [FAPI-72] | hardly detectable |  |
| -3.36 ± 0.12 | 34.9 ± 0.26 | 74.0 ± 2.07 | 82.35 ± 3.61 | 3.1 | 1.55 | 2.06 | 2.24 | 1.9 |  |  | N#C[C@@H]1CC(F)(F)CN1C(=O)CNC(=O)c1ccnc2ccc(OCCCN3CCN(C(=O)[C@H](CC(C(=O)O)C(=O)O)NC(=O)CN4CCN(CC(=O)O)CCN(CC(=O)O)CC4)CC3)cc12 [FAPI-75] |  | uptake CD26 [4]: 0.18 ± 0.02 %AD/10^6 cells; uptake WT (wild type HT1080 cells; wild type HT1080 control cells): 0.06 ± 0.01 %AD/10^6 cells; fraction detected on wildtype HT1080 (wild type HT1080 cells; wildtype HT1080, text): < 0.1%; excretion pathway (HT-1080-FAP xenografts; small animal PET in tumor bearing mice): favorable renal excretion; tumor uptake SUVmean (HT-1080-FAP xenografts; small animal PET screening, discussion): approx. 2.0; tumor-SUV max (HT-1080-FAP xenografts; [7]): 3.7; tumor-SUV mean (HT-1080-FAP xenografts; [7]): 2.2 |
